Laboratory results as given in patent US20230322822A1, “ARYL PHOSPHOROUS OXIDE COMPOUNDS AND USE THEREOF” (Chengdu Di'ao Jiuhong Pharmaceutical Factory, priority 2020, published 2023).
Like-named read-outs stand apart in the source and are kept apart here.

Assays:
[1] = molecular target: EGFR-T790M/L858R (Homo sapiens (Human), UniProt P00533, L858R/T790M); assay: Enzymatic activity test (ADP-Glo) EGFR-T790M/L858R; assay type: biochemical; settings: kinase
Experimental: (§1) • 1. […] Test information:
(§2) To assess the effect of compounds on the activity of wild-type and mutant EGFR kinases, kinase activity was tested by measuring ATP consumption in an enzymatic reaction using an ADP-Glo (Promega Corporation) kit. Samples to be tested were dissolved in DMSO and diluted in a gradient. In a microplate, an EGFR kinase, a reaction buffer (containing Tris-HCl with a pH of 7.5, MgCl2, DTT and BSA), a kinase substrate Poly(Glu4, Tyr1) and a sample (a total volume of 20 μL per well) were added per well, while a blank control (no enzyme and sample) and a negative control (no sample) were set up; incubated for 15 minutes at 23° C.; added with 5 μL of ATP, and reacted at 23° C. for 60 minutes; added with ADP-Glo Reagent, and continuously reacted for 40 minutes at room temperature to inactivate the redundant ATP; then, added with a Kinase Detection Reagent, and reacted at room temperature for 30 minutes, then the chemiluminescence intensity L of each well was measured. […] IC50 values were calculated according to the above calculation using 4Parameter Logistic Model in XLfit software. • 3.

[2] = molecular target: EGFR-C797S/T790M/L858R (Homo sapiens (Human), UniProt P00533, C797S/L858R/T790M); assay: Enzymatic activity test (ADP-Glo) EGFR-C797S/T790M/L858R; assay type: biochemical; settings: kinase
Summary of the method: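 Each EGFR mutant was preincubated with compound, Poly(Glu4,Tyr1) and Tris-HCl pH 7.5 buffer (MgCl2, DTT, BSA) for 15 min at 23 °C. ATP was then added for 60 min at 23 °C. ADP-Glo luminescence gave ATP consumption, and IC50 came from a 4-parameter logistic fit.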

[3] = molecular target: EGFR-T790M/Del19 (Homo sapiens, UniProt P00533, T790M, form not given); assay: Enzymatic activity test (ADP-Glo) EGFR-T790M/Del19; assay type: biochemical; settings: kinase
Experimental: as §1, §2

[4] = test system: Ba/F3 cells expressing EGFR-WT; assay: Cell anti-proliferation test 1 (CTG), BaF3 EGFR-WT; settings: Mus musculus, BaF3, 72 h, read-out: EGFR-WT IC50
[5] = test system: Ba/F3-EML-4-ALK-L1196M; assay: Cell anti-proliferation test 3 (CTG), Ba/F3-EML-4-ALK-L1196M; assay type: cell-based; settings: Ba/F3 EML4-ALK-L1196M, 72 h, BaF3 cells, Day 3
[6] = test system: Ba/F3 cells expressing EGFR-T790M/Del19; assay: Cell anti-proliferation test 1 (CTG), BaF3 EGFR-T790M/Del19; settings: Mus musculus, BaF3, 72 h, read-out: EGFR-T790M/Del19 IC50
[7] = molecular target: EML4-ALK kinase (Homo sapiens (Human), UniProt Q9HC35+Q9UM73); assay: Enzymatic activity test 2 (ADP-Glo) EML4-ALK kinase; assay type: biochemical
Experimental: as §1
as §2, with “EML4-ALK” for “wild-type and mutant EGFR”, “EML4-ALK” for “EGFR”, “IGF1” for “Poly(Glu4, Tyr1)”, “up;” for “up; incubated for 15 minutes at 23° C.;”, “kinase detection reagent,” for “Kinase Detection Reagent,”

[8] = test system: BaF3 EML-4-ALK-L1196M cell line; assay: Cell anti-proliferation test 4 (CCK-8), BaF3 EML-4-ALK-L1196M; assay type: cell-based; settings: Ba/F3 EML4-ALK-L1196M, BaF3 EML-4-ALK-L1196M cells, CCK-8, 72 hours
Experimental: BaF3 EML-4-ALK-L1196M cell line, brand: KYinno, article number: KC-0102
Cell Counting Kit-8 (CCK-8), brand: Targetmol, article number: C0005
10 μL of the compound diluted in gradient was added to the cell plate to give final concentrations of the compounds as 500, 166.67, 55.56, 18.52, 6.17, 2.06, 0.69, 0.23 and 0.08 nM. • d.

[9] = test system: NCI-H3122 cells; assay: In vivo pharmacodynamic study, subcutaneously implanted tumor NCI-H3122 (two-sided model); set-up: species or system BALB/c nude mouse
Experimental: Passages were treated twice a week. When the cell number reached requirement, the cells were collected, counted and inoculated.
Administration mode and frequency: oral gavage was carried out with an administration volume of 10 mL/kg, and the model group was administered with the same volume of solvent. The administration was once per day and continuously carried out for 16 days.
General conditions such as spirit, activity, food intake and the like of the mice were observed every day, and the weight was measured thrice every week; the short diameter (a) and the long diameter (b) of each mouse tumor were measured thrice a week with a vernier caliper, and the tumor volume was calculated according to the formula (a^2×b)/2. The Relative Tumor Volume (RTV) was calculated from the measured tumor volume, wherein RTV=Vt/V0, wherein V0 was the tumor volume at random grouping (i.e., d0) and Vt was the tumor volume at each measurement (i.e., dn). The relative tumor proliferation rate of the evaluation index of the anti-tumor activity was calculated according to the following formula: relative tumor proliferation rate T/C (%): […]
Note: TRTV: treatment group RTV; CRTV model control group RTV.

[10] = 20 mg/kg oral gavage once per day
[11] = 40 mg/kg oral gavage once per day

Sequence of EGFR-T790M/Del19 (P00533 25-1210 T790M limits assumed): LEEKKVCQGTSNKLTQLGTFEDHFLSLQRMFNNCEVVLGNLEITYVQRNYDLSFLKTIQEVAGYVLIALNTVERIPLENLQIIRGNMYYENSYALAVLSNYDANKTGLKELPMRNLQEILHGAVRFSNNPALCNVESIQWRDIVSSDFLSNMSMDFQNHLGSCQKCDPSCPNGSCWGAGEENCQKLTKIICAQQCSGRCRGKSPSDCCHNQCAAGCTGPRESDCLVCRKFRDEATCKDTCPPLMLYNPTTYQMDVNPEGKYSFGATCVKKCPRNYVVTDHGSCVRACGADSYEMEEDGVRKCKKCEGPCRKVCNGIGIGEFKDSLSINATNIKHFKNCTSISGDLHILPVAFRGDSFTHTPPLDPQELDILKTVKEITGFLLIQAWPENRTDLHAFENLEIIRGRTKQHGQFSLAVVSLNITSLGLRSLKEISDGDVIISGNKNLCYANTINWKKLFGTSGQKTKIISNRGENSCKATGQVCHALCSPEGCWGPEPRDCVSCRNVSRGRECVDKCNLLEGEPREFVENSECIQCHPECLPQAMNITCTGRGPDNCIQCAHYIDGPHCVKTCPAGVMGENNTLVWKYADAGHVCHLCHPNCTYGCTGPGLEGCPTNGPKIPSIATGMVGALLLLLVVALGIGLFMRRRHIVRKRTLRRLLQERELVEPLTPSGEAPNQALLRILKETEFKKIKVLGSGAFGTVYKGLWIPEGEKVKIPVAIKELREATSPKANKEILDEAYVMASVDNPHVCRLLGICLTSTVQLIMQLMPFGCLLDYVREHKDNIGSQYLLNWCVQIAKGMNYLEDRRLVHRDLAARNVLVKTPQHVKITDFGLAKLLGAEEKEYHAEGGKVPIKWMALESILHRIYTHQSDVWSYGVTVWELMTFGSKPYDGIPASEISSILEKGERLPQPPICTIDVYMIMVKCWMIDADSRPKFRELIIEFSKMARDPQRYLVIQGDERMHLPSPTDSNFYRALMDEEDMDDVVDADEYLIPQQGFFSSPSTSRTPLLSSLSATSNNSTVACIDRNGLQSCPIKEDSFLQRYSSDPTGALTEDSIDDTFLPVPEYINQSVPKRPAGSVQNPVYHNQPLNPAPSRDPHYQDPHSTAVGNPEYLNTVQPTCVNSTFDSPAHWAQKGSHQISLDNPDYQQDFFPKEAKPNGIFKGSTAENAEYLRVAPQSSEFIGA
Sequence of EGFR-T790M/L858R (P00533 25-1210 T790M/L858R): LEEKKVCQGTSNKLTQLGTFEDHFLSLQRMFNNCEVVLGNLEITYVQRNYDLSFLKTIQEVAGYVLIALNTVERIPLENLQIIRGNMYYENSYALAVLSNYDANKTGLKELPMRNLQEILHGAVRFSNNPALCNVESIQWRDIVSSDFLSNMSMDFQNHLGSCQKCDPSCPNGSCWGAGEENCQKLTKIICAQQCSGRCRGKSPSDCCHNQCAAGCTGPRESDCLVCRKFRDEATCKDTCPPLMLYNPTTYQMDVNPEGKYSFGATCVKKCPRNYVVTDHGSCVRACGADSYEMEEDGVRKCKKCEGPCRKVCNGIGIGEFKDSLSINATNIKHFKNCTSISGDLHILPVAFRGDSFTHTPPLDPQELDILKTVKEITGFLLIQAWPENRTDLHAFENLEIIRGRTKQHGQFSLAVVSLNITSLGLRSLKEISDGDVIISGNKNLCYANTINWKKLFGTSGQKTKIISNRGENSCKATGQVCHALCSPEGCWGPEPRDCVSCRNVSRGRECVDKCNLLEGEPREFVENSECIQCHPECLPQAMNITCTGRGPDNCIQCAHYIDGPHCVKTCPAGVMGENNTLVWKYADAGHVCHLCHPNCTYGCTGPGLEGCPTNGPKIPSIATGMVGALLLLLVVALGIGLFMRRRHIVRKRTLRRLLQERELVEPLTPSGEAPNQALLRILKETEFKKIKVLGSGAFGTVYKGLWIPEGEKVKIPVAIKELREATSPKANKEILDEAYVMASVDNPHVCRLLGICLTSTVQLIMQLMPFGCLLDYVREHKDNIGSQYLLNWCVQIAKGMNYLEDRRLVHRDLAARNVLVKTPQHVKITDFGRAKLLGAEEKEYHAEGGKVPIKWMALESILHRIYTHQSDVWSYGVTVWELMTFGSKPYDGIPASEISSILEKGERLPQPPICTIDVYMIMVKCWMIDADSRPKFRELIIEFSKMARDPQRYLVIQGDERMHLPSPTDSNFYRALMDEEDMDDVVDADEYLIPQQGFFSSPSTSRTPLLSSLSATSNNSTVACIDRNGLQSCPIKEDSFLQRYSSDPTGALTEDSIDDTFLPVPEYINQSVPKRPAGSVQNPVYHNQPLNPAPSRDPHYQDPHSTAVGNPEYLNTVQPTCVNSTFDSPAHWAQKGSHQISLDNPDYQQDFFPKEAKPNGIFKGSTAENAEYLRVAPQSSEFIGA
Sequence of EGFR-C797S/T790M/L858R (P00533 25-1210 T790M/C797S/L858R): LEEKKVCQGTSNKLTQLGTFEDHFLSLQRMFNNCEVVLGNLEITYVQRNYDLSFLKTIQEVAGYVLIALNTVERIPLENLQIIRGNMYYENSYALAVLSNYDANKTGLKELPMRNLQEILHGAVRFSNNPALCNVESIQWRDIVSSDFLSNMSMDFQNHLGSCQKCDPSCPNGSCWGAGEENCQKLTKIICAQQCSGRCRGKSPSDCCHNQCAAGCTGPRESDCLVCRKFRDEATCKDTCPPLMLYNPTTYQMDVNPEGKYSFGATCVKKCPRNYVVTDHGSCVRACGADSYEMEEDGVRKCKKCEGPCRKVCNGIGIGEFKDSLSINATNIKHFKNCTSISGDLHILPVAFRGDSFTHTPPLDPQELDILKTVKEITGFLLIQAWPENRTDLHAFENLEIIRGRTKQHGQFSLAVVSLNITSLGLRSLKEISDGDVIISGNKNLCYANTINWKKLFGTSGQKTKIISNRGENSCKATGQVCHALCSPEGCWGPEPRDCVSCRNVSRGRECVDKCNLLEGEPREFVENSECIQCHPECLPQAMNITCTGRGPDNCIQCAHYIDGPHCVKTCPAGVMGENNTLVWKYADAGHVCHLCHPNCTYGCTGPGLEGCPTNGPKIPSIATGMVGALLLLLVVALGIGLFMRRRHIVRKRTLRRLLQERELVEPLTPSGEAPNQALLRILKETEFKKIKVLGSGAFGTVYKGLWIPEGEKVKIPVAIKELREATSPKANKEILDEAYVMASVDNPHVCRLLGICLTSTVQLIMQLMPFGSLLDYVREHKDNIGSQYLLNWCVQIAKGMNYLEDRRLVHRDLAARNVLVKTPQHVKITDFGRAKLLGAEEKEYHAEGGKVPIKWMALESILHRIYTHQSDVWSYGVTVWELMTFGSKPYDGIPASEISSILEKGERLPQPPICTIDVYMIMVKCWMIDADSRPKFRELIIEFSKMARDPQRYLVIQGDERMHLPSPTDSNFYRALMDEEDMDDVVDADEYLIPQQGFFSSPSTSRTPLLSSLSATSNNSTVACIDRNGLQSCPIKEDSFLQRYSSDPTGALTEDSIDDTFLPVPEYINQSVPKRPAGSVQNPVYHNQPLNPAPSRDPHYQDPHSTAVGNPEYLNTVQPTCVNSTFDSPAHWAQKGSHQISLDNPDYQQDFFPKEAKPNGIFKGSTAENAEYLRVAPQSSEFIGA
Sequence of EML4-ALK kinase (Q9UM73 other isoform, or with tags, fused parts or gaps): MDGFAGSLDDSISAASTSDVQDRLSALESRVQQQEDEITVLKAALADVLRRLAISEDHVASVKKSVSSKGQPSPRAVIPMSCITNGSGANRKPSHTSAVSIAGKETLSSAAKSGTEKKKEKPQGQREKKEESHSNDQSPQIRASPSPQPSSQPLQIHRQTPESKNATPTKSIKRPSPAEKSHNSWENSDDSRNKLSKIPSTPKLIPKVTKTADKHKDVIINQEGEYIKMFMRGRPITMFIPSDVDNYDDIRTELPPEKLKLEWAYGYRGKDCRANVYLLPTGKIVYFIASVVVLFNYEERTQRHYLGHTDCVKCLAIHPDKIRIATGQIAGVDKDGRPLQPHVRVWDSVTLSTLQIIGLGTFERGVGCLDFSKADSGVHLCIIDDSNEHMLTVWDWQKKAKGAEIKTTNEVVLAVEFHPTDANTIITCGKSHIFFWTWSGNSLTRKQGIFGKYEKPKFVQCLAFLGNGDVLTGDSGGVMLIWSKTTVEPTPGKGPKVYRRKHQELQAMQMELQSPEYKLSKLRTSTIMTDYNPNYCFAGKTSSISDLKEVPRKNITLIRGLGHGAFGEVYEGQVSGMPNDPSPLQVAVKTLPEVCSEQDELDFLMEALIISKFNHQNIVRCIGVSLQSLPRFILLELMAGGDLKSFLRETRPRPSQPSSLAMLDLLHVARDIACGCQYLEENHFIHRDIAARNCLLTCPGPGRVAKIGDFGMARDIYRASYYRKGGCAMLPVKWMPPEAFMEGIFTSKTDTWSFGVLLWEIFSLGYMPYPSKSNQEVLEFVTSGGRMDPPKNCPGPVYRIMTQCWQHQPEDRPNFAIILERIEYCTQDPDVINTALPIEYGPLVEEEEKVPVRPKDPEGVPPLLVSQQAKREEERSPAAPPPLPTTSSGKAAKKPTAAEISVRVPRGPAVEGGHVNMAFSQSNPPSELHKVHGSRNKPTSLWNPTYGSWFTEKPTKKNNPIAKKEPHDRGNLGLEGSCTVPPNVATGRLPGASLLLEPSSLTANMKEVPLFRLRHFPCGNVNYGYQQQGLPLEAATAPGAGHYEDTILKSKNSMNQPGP

## COc1cc(N2CCC(N3CCN(C)CC3)CC2)c(Cl)cc1Nc1ncc(Br)c(Nc2ccc(C)cc2P(C)(C)=O)n1 [Compound 14]
[1]
  IC50: 16.6 nM
[2]
  IC50: 10.1 nM
[3]
  IC50: 3.6 nM
[4]
  IC50: 620 nM
[5]
  IC50: 13.1 nM
[6]
  IC50: 2.3 nM
[7]
  IC50: 12.9 nM

## COc1cc(N2CCC(N3CCN(C)CC3)CC2)c(C)cc1Nc1ncc(Br)c(Nc2ccc(C)cc2P(C)(C)=O)n1 [Compound 2]
[8]; first test, read-out: First test IC50
  IC50: 15.1 nM
[8]; second test, read-out: Second test IC50
  IC50: 10.4 nM
[3]
  IC50: 3.9 nM
[4]
  IC50: 1260 nM
[5]
  IC50: 13.1 nM
[6]
  IC50: 6.5 nM
[9]; [10]
  NCI-H3122 Tumor volume Day 0: 116 mm^3
  NCI-H3122 T/C Day 2: 81.79%
  NCI-H3122 Tumor volume Day 2: 115 mm^3
  NCI-H3122 T/C Day 4: 49.46%
  NCI-H3122 Tumor volume Day 4: 92 mm^3
  NCI-H3122 T/C Day 6: 34.18%
  NCI-H3122 Tumor volume Day 6: 84 mm^3
  NCI-H3122 T/C Day 9: 19.71%
  NCI-H3122 Tumor volume Day 9: 74 mm^3
  NCI-H3122 T/C Day 11: 13.58%
  NCI-H3122 Tumor volume Day 11: 63 mm^3
  NCI-H3122 T/C Day 13: 10.25%
  NCI-H3122 Tumor volume Day 13: 58 mm^3
  NCI-H3122 T/C Day 16: 8.16%
  NCI-H3122 Tumor volume Day 16: 61 mm^3
[9]; [11]
  NCI-H3122 Tumor volume Day 0: 116 mm^3
  NCI-H3122 T/C Day 2: 72.16%
  NCI-H3122 Tumor volume Day 2: 101 mm^3
  NCI-H3122 T/C Day 4: 29.76%
  NCI-H3122 Tumor volume Day 4: 54 mm^3
  NCI-H3122 T/C Day 6: 19.38%
  NCI-H3122 Tumor volume Day 6: 47 mm^3
  NCI-H3122 T/C Day 9: 8.54%
  NCI-H3122 Tumor volume Day 9: 33 mm^3
  NCI-H3122 T/C Day 11: 7.2%
  NCI-H3122 Tumor volume Day 11: 34 mm^3
  NCI-H3122 T/C Day 13: 5.28%
  NCI-H3122 Tumor volume Day 13: 32 mm^3
  NCI-H3122 T/C Day 16: 3.6%
  NCI-H3122 Tumor volume Day 16: 28 mm^3

## COc1cc(N2CCC(N(C)C)CC2)c(C)cc1Nc1ncc(Br)c(Nc2ccc(C)cc2P(C)(C)=O)n1 [Compound 6]
[1]
  IC50: 28.8 nM
[2]
  IC50: 16.8 nM
[3]
  IC50: 1.1 nM
[4]
  IC50: 1230 nM
[5]
  IC50: 7.4 nM
[6]
  IC50: 10.5 nM
[7]
  IC50: 14.6 nM
